# Legend:
# [1] = Hygroscopicity when allowed to stand in a room; format: physicochemical; settings: for Hygroscopicity: allowed to stand in a room
# Procedure: Fifty parts by weight of 98% maltopentaose, a product commercialized by Hayashibara Biochemical Laboratories, Inc., Okayama, Japan, was dissolved in 200 parts by weight of water while heating and the resultant solution was heated to 40° C. and adjusted to pH 7.0, admixed with a non-reducing saccharide-forming enzyme prepared by the method in Experiment A-2 in an amount of 5 units/g maltopentaose, reacted for 24 hours and followed by heating at 100° C. for 20 minutes to inactivate the enzyme. The resultant solution contained about 90% maltotetraosyl glucoside, and the remains are maltopentaose. The solution was adjusted to 0.1N by adding sodium hydroxide, and heated at 100° C. for 2 hours to decompose reducing saccharides. The solution was decolored with activated carbon and desalted with ion-exchange resins (H^+ and OH^- form) to obtain 98% maltotetraosyl glucoside fraction. The fractions were pooled and the solution was concentrated to give a concentration of 60%, placed in a crystallizer and admixed with a crystalline maltotetraosyl glucoside in an amount of 2% as a seed crystal, and the resultant mixture is cooled gradually while stirring for crystallization to form a massecuit. The massecuit thus obtained was separated from molasses to obtain 99.9% hydrous crystalline maltotetraosyl glucoside in the yield against starting material of about 50%.
# The anhydrous crystalline maltotetraosyl glucoside can be favorably used as hygroscopic agent, dehydrating agent and chemical raw material, and further utilizable in a variety of compositions including foods, beverages, cosmetics, pharmaceuticals and shaped bodies, similar to hydrous crystalline maltotetraosyl glucoside in Example A-1.
# [2] = Reducing power by the Somogyi-Nelson method, represented by DE; format: physicochemical; settings: high-purity lyophilized saccharide preparations
# Procedure: These high-purity saccharide preparations were tested for reducing power with the Somogyi-Nelson method and their reducing powers were represented by DE (dextrose equivalent).
# [3] = Acute toxicity in mice upon oral administration; format: in vivo; settings: mouse, in vivo, oral administration
# Procedure: (§1) Hydrous and anhydrous crystalline maltotetraosyl glucosides prepared by the method in Experiment B-1 were tested for acute toxicity in mice upon oral administration.
# [4] = tested on: mice; assay: Acute toxicity in mice upon oral administration; format: in vivo; settings: oral, maximum administrable doses
# Procedure: as §1
# [5] = Solubility in water; format: physicochemical; settings: in 100 ml of 25° C. water; read-out: Solubility (as anhydride)
# Procedure: (8) Solubility (as anhydride)
# Up to about 1 g each hydrous or anhydrous crystal was soluble in 100 ml of 25° C. water.
SMILES,Hygroscopicity [1],"DE (dextrose equivalent), reducing power [2]",also measured
"OC[C@H]1O[C@H](O[C@H]2O[C@H](CO)[C@@H](O[C@H]3O[C@H](CO)[C@@H](O[C@H]4O[C@H](CO)[C@@H](O[C@H]5O[C@H](CO)[C@@H](O)[C@H](O)[C@H]5O)[C@H](O)[C@H]4O)[C@H](O)[C@H]3O)[C@H](O)[C@H]2O)[C@H](O)[C@@H](O)[C@@H]1O [Example A-1, maltotetraosyl glucoside]",no hygroscopicity,–,–
"OC[C@H]1O[C@H](O[C@H]2O[C@H](CO)[C@@H](O[C@H]3O[C@H](CO)[C@@H](O[C@H]4O[C@H](CO)[C@@H](O[C@H]5O[C@H](CO)[C@@H](O)[C@H](O)[C@H]5O)[C@H](O)[C@H]4O)[C@H](O)[C@H]3O)[C@H](O)[C@H]2O)[C@H](O)[C@@H](O)[C@@H]1O [Example A-2, maltotetraosyl glucoside]",substantially no hygroscopicity,–,–
"OC[C@H]1O[C@H](O[C@H]2O[C@H](CO)[C@@H](O[C@H]3O[C@H](CO)[C@@H](O[C@H]4O[C@H](CO)[C@@H](O[C@H]5O[C@H](CO)[C@@H](O)[C@H](O)[C@H]5O)[C@H](O)[C@H]4O)[C@H](O)[C@H]3O)[C@H](O)[C@H]2O)[C@H](O)[C@@H](O)[C@@H]1O [Example A-3, maltotetraosyl glucoside]",substantially no hygroscopicity,–,–
"OC[C@H]1O[C@H](O[C@H]2O[C@H](CO)[C@@H](O[C@H]3O[C@H](CO)[C@@H](O[C@H]4O[C@H](CO)[C@@H](O[C@H]5O[C@H](CO)[C@@H](O)[C@H](O)[C@H]5O)[C@H](O)[C@H]4O)[C@H](O)[C@H]3O)[C@H](O)[C@H]2O)[C@H](O)[C@@H](O)[C@@H]1O [Example A-4, maltotetraosyl glucoside]",exhibited hygroscopicity,–,Water content after standing in a room ([1]; after conversion into hydrous crystal): about 4%
"OC[C@H]1O[C@H](O[C@H]2O[C@H](CO)[C@@H](O[C@H]3O[C@H](CO)[C@@H](O[C@H]4O[C@H](CO)[C@@H](O[C@H]5O[C@H](CO)[C@@H](O)[C@H](O)[C@H]5O)[C@H](O)[C@H]4O)[C@H](O)[C@H]3O)[C@H](O)[C@H]2O)[C@H](O)[C@@H](O)[C@@H]1O [Example A-5, maltotetraosyl glucoside]",substantially no hygroscopicity,–,–
"OC[C@H]1O[C@H](O[C@H]2O[C@H](CO)[C@@H](O[C@H]3O[C@H](CO)[C@@H](O)[C@H](O)[C@H]3O)[C@H](O)[C@H]2O)[C@H](O)[C@@H](O)[C@@H]1O [PI, α-glucosyl trehalose (or α-maltosyl glucoside)]",–,0.83,–
"OC[C@H]1O[C@H](O[C@H]2O[C@H](CO)[C@@H](O[C@H]3O[C@H](CO)[C@@H](O[C@H]4O[C@H](CO)[C@@H](O)[C@H](O)[C@H]4O)[C@H](O)[C@H]3O)[C@H](O)[C@H]2O)[C@H](O)[C@@H](O)[C@@H]1O [PII, α-maltosyl trehalose (or α-maltotriosyl glucoside)]",–,0.35,–
"OC[C@H]1O[C@H](O[C@H]2O[C@H](CO)[C@@H](O[C@H]3O[C@H](CO)[C@@H](O[C@H]4O[C@H](CO)[C@@H](O[C@H]5O[C@H](CO)[C@@H](O)[C@H](O)[C@H]5O)[C@H](O)[C@H]4O)[C@H](O)[C@H]3O)[C@H](O)[C@H]2O)[C@H](O)[C@@H](O)[C@@H]1O [PIII, α-maltotriosyl trehalose (or α-maltotetraosyl glucoside)]",–,0.10,–
"OC[C@H]1O[C@H](O[C@H]2O[C@H](CO)[C@@H](O[C@H]3O[C@H](CO)[C@@H](O[C@H]4O[C@H](CO)[C@@H](O[C@H]5O[C@H](CO)[C@@H](O[C@H]6O[C@H](CO)[C@@H](O)[C@H](O)[C@H]6O)[C@H](O)[C@H]5O)[C@H](O)[C@H]4O)[C@H](O)[C@H]3O)[C@H](O)[C@H]2O)[C@H](O)[C@@H](O)[C@@H]1O [PIV, α-maltotetraosyl trehalose (or α-maltopentaosyl glucoside)]",–,0.27,–
"OC[C@H]1O[C@H](O[C@H]2O[C@H](CO)[C@@H](O[C@H]3O[C@H](CO)[C@@H](O[C@H]4O[C@H](CO)[C@@H](O[C@H]5O[C@H](CO)[C@@H](O[C@H]6O[C@H](CO)[C@@H](O[C@H]7O[C@H](CO)[C@@H](O)[C@H](O)[C@H]7O)[C@H](O)[C@H]6O)[C@H](O)[C@H]5O)[C@H](O)[C@H]4O)[C@H](O)[C@H]3O)[C@H](O)[C@H]2O)[C@H](O)[C@@H](O)[C@@H]1O [PV, α-maltopentaosyl trehalose (or α-maltohexaosyl glucoside)]",–,0.23,–
"OC[C@H]1O[C@H](O[C@H]2O[C@H](CO)[C@@H](O[C@H]3O[C@H](CO)[C@@H](O[C@H]4O[C@H](CO)[C@@H](O[C@H]5O[C@H](CO)[C@@H](O)[C@H](O)[C@H]5O)[C@H](O)[C@H]4O)[C@H](O)[C@H]3O)[C@H](O)[C@H]2O)[C@H](O)[C@@H](O)[C@@H]1O [hydrous crystal, O-α-D-glucopyranosyl-(1→4)-O-α-D-glucopyranosyl-(1→4)-O-α-D-glucopyranosyl-(1→4)-α-D-glucopyranosyl α-D-glucopyranoside]",–,–,LD50 [3]: ≥ 50000 mg/kg; Mortality [4]: no mouse was died; solubility [5]: ~10000 µg/mL

# From patent publication US5922691A, “Crystalline maltotetraosyl glucoside, and its production and use” (Kabushiki Kaisha Hayashibara Seibutsu Kagaku Kenkyujo, priority 1994, dated 1999)
